For experiment [1], the target named is T1, FLT3-ITD (Homo sapiens, UniProt P36888).
T1 sequence (P36888 1-993): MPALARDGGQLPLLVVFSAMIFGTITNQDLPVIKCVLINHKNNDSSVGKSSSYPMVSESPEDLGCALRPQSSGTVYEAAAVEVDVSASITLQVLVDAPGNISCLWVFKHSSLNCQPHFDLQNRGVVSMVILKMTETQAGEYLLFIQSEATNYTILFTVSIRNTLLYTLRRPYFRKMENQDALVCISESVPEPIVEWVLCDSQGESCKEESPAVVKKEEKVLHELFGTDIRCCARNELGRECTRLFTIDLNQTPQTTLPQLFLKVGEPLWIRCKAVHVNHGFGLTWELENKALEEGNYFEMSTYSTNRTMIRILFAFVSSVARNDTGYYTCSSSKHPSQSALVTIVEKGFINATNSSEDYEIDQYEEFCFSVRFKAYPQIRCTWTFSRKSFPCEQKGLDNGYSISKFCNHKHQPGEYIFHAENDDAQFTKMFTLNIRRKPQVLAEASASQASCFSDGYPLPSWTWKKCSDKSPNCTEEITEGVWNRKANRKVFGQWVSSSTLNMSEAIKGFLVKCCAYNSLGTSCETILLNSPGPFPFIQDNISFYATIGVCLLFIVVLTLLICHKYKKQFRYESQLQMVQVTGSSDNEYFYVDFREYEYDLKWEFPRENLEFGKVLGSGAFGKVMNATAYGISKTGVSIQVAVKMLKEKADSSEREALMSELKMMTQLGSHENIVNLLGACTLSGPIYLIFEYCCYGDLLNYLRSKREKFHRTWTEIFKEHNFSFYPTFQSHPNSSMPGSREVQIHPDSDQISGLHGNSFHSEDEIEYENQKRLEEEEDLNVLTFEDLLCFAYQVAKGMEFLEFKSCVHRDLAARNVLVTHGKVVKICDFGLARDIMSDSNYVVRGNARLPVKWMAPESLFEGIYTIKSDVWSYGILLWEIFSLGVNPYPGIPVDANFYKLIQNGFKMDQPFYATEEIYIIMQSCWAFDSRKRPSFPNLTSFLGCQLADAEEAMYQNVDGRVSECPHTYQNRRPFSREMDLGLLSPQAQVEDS
Kind of experiment: FLT3-ITD recombinant enzyme kinase assay (AlphaScreen). Type of experiment: biochemical. Particulars: 8 pt; read-out: FLT3_ITD 8 pt: IC50. The method, then:
In order to determine the effect of compounds on FLT3 catalytic activity, kinase assays using recombinant enzymes and AlphaScreen® technology have been established. The catalytic activity of c-kit activity was also measured to determine selectivity of the compounds. When the kinases are catalytically active, they phosphorylate a biotinylated peptide substrate on tyrosine residues. Using AlphaScreen® technology, the ability of the compounds to affect the catalytic activity of the kinases can be measured quantitatively. The peptide substrate is immobilized by the AlphaScreen® Streptavidin Donor beads and, upon phosphorylation by a tyrosine kinase, can bind to AlphaScreen® Anti-Phosphotyrosine (PY20) Acceptor beads. Upon excitation of these beads with laser light at 680 nm, singlet oxygen is produced. This singlet oxygen is rapidly quenched, unless the AlphaScreen® Anti-Phosphotyrosine (PY20) Acceptor beads are in close proximity, in which case a proximity signal can be measured at 580 nm. In the presence of catalytic activity, there is a very strong proximity signal. Selective kinase inhibitors affect a decrease in this proximity signal through a decrease in tyrosine phosphorylation of the peptide substrate.
The assay was performed as summarized below.
Poly (Glu4-Tyr) Peptide, biotin conjugate [Biotin-GG(EEEEY)10EE] (SEQ ID NO: 4)
Final concentration=30 nM
Adenosine Triphosphate (ATP)
Final concentration for IC50 determination=10 μM (FLT3-D835Y or FLT3-ITD) or 100 μM (c-KIT)
AlphaScreen® Phosphotyrosine (PY20) Assay Kit
Final concentration=10 μg/mL
Dilute compounds in DMSO to 20× final concentration.
Add 1 μL of compound to each well of 384 well reaction plate (Perkin Elmer #6005359).
Mix enzyme and Poly (Glu4-Tyr) Peptide substrate at 1.33× final concentration in assay buffer.
Mix ATP at 5× final concentration in assay buffer.
Add 15 μL enzyme/substrate mixture to the reaction plate.
Add 4 μL of ATP to the reaction plate.
Mix Streptavidin Donor beads at 6× final concentration in Stop/Detection buffer.
Add 5 μL Streptavidin Donor beads to the reaction plate. Centrifuge 1 minute, shake to mix, and incubate at room temperature for 20 minutes.
Mix Anti-Phosphotyrosine (PY20) Acceptor beads at 6× final concentration in Stop/Detection buffer.
Add 5 μL Anti-Phosphotyrosine (PY20) beads to the reaction plate.
Centrifuge 1 minute, shake to mix, and incubate at room temperature for 60 minutes.
Read plate on Wallac EnVision™ 2103 Multilabel Reader.

Experiment [2] deals with MOLM-14 D835Y (endogenous FLT3 ITD and transfected FLT3 D835Y). Kind of experiment: MOLM-14 D835Y cell proliferation assay (CellTiter-Glo). Type of experiment: cell-based. Particulars: Homo sapiens, MOLM-14, 72 h; 3 d growth, GMean. The gist of the method: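 MOLM-14 derivatives carrying D835Y or F691L, selected under escalating AC220, were seeded at 1×10^4 cells/well and exposed to an 8-point 1:3 compound series (1 to 0.00046 μM, 0.2% DMSO final) for three days at 37° C., 5% CO2. CellTiter-Glo luminescence (ATP content) versus concentration gave IC50.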
In general terms: Cellular ATP, detected with luciferase, serves as a proxy for viable cell number.

As to `Cn1cc(Nc2ncc(-c3ccc(CC(=O)Nc4ccc(C(F)(F)F)cn4)c(F)c3)cn2)cn1` [Compound P-0106, 2-[2-fluoro-4-[2-[(1-methylpyrazol-4-yl)amino]pyrimidin-5-yl]phenyl]-N-[5-(trifluoromethyl)-2-pyridyl]acetamide], the IC50 in experiment [1] and in experiment [2] was 0.0001 to 10 µM throughout.

For the compound `Cn1cc(Nc2ncc(-c3ccc(CC(=O)Nc4cc(Cl)c(C5CC5)cn4)c(F)c3)cn2)cn1` [Compound P-0107, N-(4-chloro-5-cyclopropyl-2-pyridyl)-2-[2-fluoro-4-[2-[(1-methylpyrazol-4-yl)amino]pyrimidin-5-yl]phenyl]acetamide], the half-maximal inhibitory concentration (IC50) in experiment [1] and in experiment [2] was 0.0001 to 10 µM throughout.

Regarding `Cn1cc(Nc2ncc(-c3ccc(CC(=O)Nc4ccc(C(C)(C)C#N)nc4)c(F)c3)cn2)cn1` [Compound P-0108, N-[6-(1-cyano-1-methyl-ethyl)-3-pyridyl]-2-[2-fluoro-4-[2-[(1-methylpyrazol-4-yl)amino]pyrimidin-5-yl]phenyl]acetamide], the IC50 in experiment [1] and in experiment [2] was 0.0001 to 10 µM in each case.

As for `Cn1cc(Nc2ncc(-c3ccc(CC(=O)Nc4ccc(C(F)(F)F)cn4)cc3)cn2)cn1` [Compound P-0109, 2-[4-[2-[(1-methylpyrazol-4-yl)amino]pyrimidin-5-yl]phenyl]-N-[5-(trifluoromethyl)-2-pyridyl]acetamide], the IC50 in experiment [1] and in experiment [2] was 0.0001 to 10 µM in each case.

For the compound `Cn1cc(Nc2ncc(-c3ccc(CC(=O)Nc4ccc(C(F)(F)F)nc4)c(F)c3)cn2)cn1` [Compound P-0110, 2-[2-fluoro-4-[2-[(1-methylpyrazol-4-yl)amino]pyrimidin-5-yl]phenyl]-N-[6-(trifluoromethyl)-3-pyridyl]acetamide], the IC50 in experiment [1] and in experiment [2] was 0.0001 to 10 µM throughout.

With `CCc1cncc(NC(=O)Cc2ccc(-c3cnc(Nc4cnn(C)c4)nc3)cc2F)c1` [Compound P-0111, N-(5-ethyl-3-pyridyl)-2-[2-fluoro-4-[2-[(1-methylpyrazol-4-yl)amino]pyrimidin-5-yl]phenyl]acetamide], the IC50 in experiment [1] and in experiment [2] was 0.0001 to 10 µM throughout.

On to `Cn1cc(Nc2ncc(-c3ccc(CC(=O)Nc4cccnc4)cc3)cn2)cn1` [Compound P-0131, 2-[4-[2-[(1-methylpyrazol-4-yl)amino]pyrimidin-5-yl]phenyl]-N-(3-pyridyl)acetamide], for which the IC50 in experiment [1] and in experiment [2] was 0.0001 to 10 µM in each case.

As for `Cn1cc(Nc2ncc(-c3ccc(CC(=O)NCc4cccnc4)cc3)cn2)cn1` [Compound P-0132, 2-[4-[2-[(1-methylpyrazol-4-yl)amino]pyrimidin-5-yl]phenyl]-N-(3-pyridylmethyl)acetamide], the IC50 in experiment [1] and in experiment [2] was 0.0001 to 10 µM throughout.

Turning to `COc1cncc(NC(=O)Cc2ccc(-c3cnc(Nc4cnn(C)c4)nc3)cc2)c1` [Compound P-0133, N-(5-methoxy-3-pyridyl)-2-[4-[2-[(1-methylpyrazol-4-yl)amino]pyrimidin-5-yl]phenyl]acetamide], the 50% inhibitory concentration (IC50) in experiment [1] and in experiment [2] was 0.0001 to 10 µM in each case.

For the compound `Cn1cc(Nc2ncc(-c3ccc(CC(=O)Nc4ccnc(C(F)(F)F)c4)cc3)cn2)cn1` [Compound P-0134, 2-[4-[2-[(1-methylpyrazol-4-yl)amino]pyrimidin-5-yl]phenyl]-N-[2-(trifluoromethyl)-4-pyridyl]acetamide], the IC50 in experiment [1] and in experiment [2] was 0.0001 to 10 µM throughout.

Take `Cn1cc(Nc2ncc(-c3ccc(CC(=O)Nc4cc(C(F)(F)F)ncn4)cc3)cn2)cn1` [Compound P-0135, 2-[4-[2-[(1-methylpyrazol-4-yl)amino]pyrimidin-5-yl]phenyl]-N-[6-(trifluoromethyl)pyrimidin-4-yl]acetamide]: the concentration for half-maximal inhibition (IC50) in experiment [1] and in experiment [2] was 0.0001 to 10 µM each time.

As for `Cn1cc(Nc2ncc(-c3ccc(CC(=O)Nc4cncc(C(F)(F)F)c4)cc3)cn2)cn1` [Compound P-0136, 2-[4-[2-[(1-methylpyrazol-4-yl)amino]pyrimidin-5-yl]phenyl]-N-[5-(trifluoromethyl)-3-pyridyl]acetamide], the half-maximal inhibitory concentration (IC50) in experiment [1] and in experiment [2] was 0.0001 to 10 µM each time.

`Cn1cc(Nc2ncc(-c3ccc(CC(=O)Nc4ccnc(C(F)(F)F)n4)cc3)cn2)cn1` [Compound P-0137, 2-[4-[2-[(1-methylpyrazol-4-yl)amino]pyrimidin-5-yl]phenyl]-N-[2-(trifluoromethyl)pyrimidin-4-yl]acetamide]: the concentration for half-maximal inhibition (IC50) in experiment [1] and in experiment [2] was 0.0001 to 10 µM each time.

In the case of `COc1ncc(NC(=O)Cc2ccc(-c3cnc(Nc4cnn(C)c4)nc3)cc2)cc1C(F)(F)F` [Compound P-0138, N-[6-methoxy-5-(trifluoromethyl)-3-pyridyl]-2-[4-[2-[(1-methylpyrazol-4-yl)amino]pyrimidin-5-yl]phenyl]acetamide], the 50% inhibitory concentration (IC50) in experiment [1] and in experiment [2] was 0.0001 to 10 µM throughout.

As to `Cn1cc(Nc2ncc(-c3ccc(CC(=O)Nc4cc(C(F)(F)F)ccn4)cc3)cn2)cn1` [Compound P-0139, 2-[4-[2-[(1-methylpyrazol-4-yl)amino]pyrimidin-5-yl]phenyl]-N-[4-(trifluoromethyl)-2-pyridyl]acetamide], the IC50 in experiment [1] and in experiment [2] was 0.0001 to 10 µM throughout.

On to `Cc1ncc(NC(=O)Cc2ccc(-c3cnc(Nc4cnn(C)c4)nc3)cc2)cc1C(F)(F)F` [Compound P-0140, 2-[4-[2-[(1-methylpyrazol-4-yl)amino]pyrimidin-5-yl]phenyl]-N-[6-methyl-5-(trifluoromethyl)-3-pyridyl]acetamide], for which the half-inhibitory concentration (IC50) in experiment [1] and in experiment [2] was 0.0001 to 10 µM each time.

Regarding `Cn1cc(Nc2ncc(-c3ccc(CC(=O)Nc4cccc(C(F)(F)F)c4)cc3)cn2)cn1` [Compound P-0141, 2-[4-[2-[(1-methylpyrazol-4-yl)amino]pyrimidin-5-yl]phenyl]-N-[3-(trifluoromethyl)phenyl]acetamide], the 50% inhibitory concentration (IC50) in experiment [1] and in experiment [2] was 0.0001 to 10 µM in each case.

Consider `Cn1cc(Nc2ncc(-c3ccc(CC(=O)Nc4ccc(C(F)(F)F)c(F)c4)cc3)cn2)cn1` [Compound P-0142, N-[3-fluoro-4-(trifluoromethyl)phenyl]-2-[4-[2-[(1-methylpyrazol-4-yl)amino]pyrimidin-5-yl]phenyl]acetamide], for which the IC50 in experiment [1] and in experiment [2] was 0.0001 to 10 µM in each case.

Turning to `Cn1cc(Nc2ncc(-c3ccc(CC(=O)Nc4ccc(C(C)(C)C)nc4)cc3)cn2)cn1` [Compound P-0143, N-(6-tert-butyl-3-pyridyl)-2-[4-[2-[(1-methylpyrazol-4-yl)amino]pyrimidin-5-yl]phenyl]acetamide], the IC50 in experiment [1] and in experiment [2] was 0.0001 to 10 µM each time.

Usually IC50 stands for the point on the concentration scale where inhibition reaches its midpoint.
